Test results published in US8410045B2, “Camptothecin-peptide conjugates and pharmaceutical compositions containing the same” (Drais Pharmaceuticals, Inc., priority 2006, dated 2013).
Where a name gives a salt, the structure may show the parent alone.

Columns and labels:
[1] = In vitro cytotoxicity (WST-1 cell viability); format: cell-based, human; conditions: 1 h exposure + 48 h post-incubation; read-out: In vitro cytotoxicity IC50 (μM) NCI-H460
Experimental: Cytotoxic evaluation was performed by seeded cells for 24 h prior to the addition of the therapeutic compound. Cells were incubated for 48 h (37° C.) with different dilutions of the therapeutic compound. Cell viability was then assessed using the WST-1 assay (Roche). The results are expressed as mean cytotoxic concentrations (IC50 value or molar concentration that inhibits 50% of cell viability) that were estimated from sigmoid regression, using Graph Pad Prism 3.02 software.
NCI-H460 (ATCC#: HTB-177): human epithelial lung carcinoma cells. Cells were cultured in RPMI 1640+glutamax and 10% of fetal bovine serum. Cells were plated at a density of 10,000 cells/well in 96-well plates.

NCI-H460 lung carcinoma = assay: Antitumor efficacy in NCI-H460 lung carcinoma model in nude mice; conditions: Table 9, 25 μmol/kg

For `CCc1c2c(nc3ccc(OC(=O)[C@H]4CC[C@H](CNC(=O)C5CCC(CN6C(=O)CC(SC[C@H](N)C(=O)N[C@H](C(=O)N[C@@H](CCCCN)C(=O)N[C@@H](CCCNC(=N)N)C(=O)NCC(=O)N[C@@H](CC(C)C)C(=O)N[C@@H](CCCCN)C(=O)N[C@@H](CC(C)C)C(=O)N[C@@H](CCCNC(=N)N)C(=O)N[C@@H](Cc7c[nH]cn7)C(=O)N[C@H](C(=O)N[C@@H](CCCNC(=N)N)C(=O)N7CCC[C@H]7C(=O)N[C@@H](CCCNC(=N)N)C(=O)N[C@H](C(=O)N[C@H](C(=O)N[C@@H](CCCNC(=N)N)C(=O)N[C@@H](CCSC)C(=O)N[C@@H](CC(=O)O)C(=O)N[C@H](C(=O)O)C(C)C)[C@@H](C)O)C(C)C)C(C)C)C(C)C)C6=O)CC5)CC4)cc13)-c1cc3c(c(=O)n1C2)COC(=O)[C@]3(O)CC` (single isomer, unassigned) [DPV1047-BCH-SN38•HCl], the IC50 [1] was 173 µM, the “In vivo efficacy Optimal T/C %” value (NCI-H460 lung carcinoma) was 22.9% and the “In vivo efficacy TGI %” value (NCI-H460 lung carcinoma) was 77.1%. For the same compound, the “In vivo efficacy Optimal T/C %” value (NCI-H460 lung carcinoma; listed as DPV1047-BCH-SN38.HCl) was 18.4%.
